Measurements from patent US20050238666A1, “Methods of enhancing stem cell engraftment” (priority 2003, published 2005).

Tests used:
[1] = system: hematopoietic progenitor cells; assay: Colony assay in methylcellulose (CFU) of transduced bone marrow progenitor cells; assay type: cell-based, mouse; settings: expression of the transgene in the cells; FIG. 9
Procedure: Mouse Low Density Bone Marrow (LDBM) Isolation and Viral Transduction: Whole bone marrow was collected from C57B1/6 animals (Jackson Laboratory, Bar Harbor, Me.), 48 h after treatment with 5-fluorouracil (150 mg/kg of body weight, IP; American Pharmaceutical Partners, Los Angeles, Calif.) and was re-suspended in RPMI medium (Life Technologies, Inc.). Bone marrow cells were obtained from the animals, and low-density, mononuclear bone marrow (LDBM) cells are isolated from fresh bone marrow (BM) by density centrifugation on Histopaque-1083 (Sigma, […].) gradient for 20 min at 1,700 rpm at room temperature. Cells at the interface were collected and washed twice with Roswell Park Memorial Institute (RPMI) Media and then counted on a hemocytometer. […] Cells were subsequently analyzed and sorted for green fluorescence protein (GFP) using a Fluorescence Activated Cell Sorting (FACS) (Becton Dickinson, San Jose, Calif.). […]
The transduction efficiency of the cells was tested using the following assay: Colony assay: 2×10^4 cells re-suspended in 4 mL complete methylcellulose (Metho Cult™ GF M3434, Stem Cell Technologies) were plated in 35 mm grided non-tissue culture dishes (Nalge Nunc Int.) (1 mL/dish). The colonies were scored after 10 days incubation in 5% CO2 at 37° C. […]

[2] = system: hematopoietic stem cells; assay: In vivo transplantation and engraftment study (EGFP+ cells by FACS and CFU); parameters: species or system C57BL/6 mice
Procedure: FIG. 2 is a graphical representation of the experimental design showing the design for injecting mice with bone marrow cells. The peripheral blood (PB) cells were tested for EGFP+ cells by FACS analysis and the bone marrow (BM) cells were tested for EGFP+ cells by FACS analysis and by CFU assay.
4×10^5 cells were injected into C57BL/6 mice (8-10 weeks old). Prior to the transplant, the mice were irradiated with 11.75 Gy in split dose (7 Gy and 4.75 Gy) using a Cs^137 source with a minimum of 3 h between doses. For engraftment studies, 100 μL tail vein blood samples were withdrawn from each transplanted mouse every 4 weeks. Peripheral blood cells were incubated in red blood cell lysis buffer (Pharmingen, San Diego, Calif.) for […] at room temperature. Cells were then washed twice and re-suspended in 1 ml of PBS and 0.2% bovine serum albumin (BSA) (Roche Applied Sciences, Indianapolis, Ind.). The percentages of GFP^+ cells of each sample were analyzed by flow cytometry. Sixteen weeks post transplant bone marrow and spleen were isolated from the experimental animals. Cells isolated from these organs were incubated in red blood cells lysis buffer, re-suspended in PBS, 0.2% BSA and analyzed by flow cytometry, as described above.
The ability of hematopoietic progenitor cells to form colonies was analyzed in the presence of various transgenes expressing normal and mutated forms of GTPases. […]

Row | Substance | ability of hematopoietic progenitor cells to form colonies [1] | engraftment: EGFP+ peripheral blood cells in transplanted animals ([2]; 3, 7, 11 and 16 weeks post transplant, normalized to control cells at 3 weeks, FIG. 6) | stem cell (HSC) engraftment ([2]; peripheral blood, bone marrow, spleen, CFU, secondary transplant, FIGS. 6, 8, 9 and 10)
1 | Cdc42N17: dominant negative Cdc42 cDNA cloned into a murine stem cell virus-based bicistronic EGFP vector | not affected |  | 
2 | RhoAN19: dominant negative mouse RhoA protein with threonine to asparagine point mutation at position 19, expressed from retroviral vector | not affected | advantageous | advantageous
